Among the data in ChEMBL document CHEMBL3745697, “Identification of azabenzimidazoles as potent JAK1 selective inhibitors” (Bioorg Med Chem Lett, 2016) are IC50, Ratio IC50 and inhibition values, retold here.

SMILES strings stand for the structures. Activity calls are given as the source filed them. The rule behind the calls is not given here.

Usually IC50 stands for the midpoint of a concentration-inhibition curve.

Test [1] concerns the target T1, Tyrosine-protein kinase JAK2 (Homo sapiens, UniProt O60674). Description: Inhibition of N-terminal GST-fused recombinant JAK2 (831 to 1132 residues) (unknown origin) expressed in insect cells using 5FAM-GEEPLYWSFPAKKK-NH2 as substrate by microfluidic capillary electrophoresis method.
For test [2], the target named is T2, Tyrosine-protein kinase JAK1 (Homo sapiens, UniProt P23458). Description: Inhibition of N-terminal GST-fused human recombinant JAK1 (866 to 1154 residues) expressed in insect cells using FITC-C6-KKHTDDGYMPMSPGVA-NH2 as substrate by microfluidic capillary electrophoresis method.
Test [3] concerns the target T3, Tyrosine-protein kinase JAK3 (Homo sapiens, UniProt P52333).
T3 sequence (P52333 whole entry): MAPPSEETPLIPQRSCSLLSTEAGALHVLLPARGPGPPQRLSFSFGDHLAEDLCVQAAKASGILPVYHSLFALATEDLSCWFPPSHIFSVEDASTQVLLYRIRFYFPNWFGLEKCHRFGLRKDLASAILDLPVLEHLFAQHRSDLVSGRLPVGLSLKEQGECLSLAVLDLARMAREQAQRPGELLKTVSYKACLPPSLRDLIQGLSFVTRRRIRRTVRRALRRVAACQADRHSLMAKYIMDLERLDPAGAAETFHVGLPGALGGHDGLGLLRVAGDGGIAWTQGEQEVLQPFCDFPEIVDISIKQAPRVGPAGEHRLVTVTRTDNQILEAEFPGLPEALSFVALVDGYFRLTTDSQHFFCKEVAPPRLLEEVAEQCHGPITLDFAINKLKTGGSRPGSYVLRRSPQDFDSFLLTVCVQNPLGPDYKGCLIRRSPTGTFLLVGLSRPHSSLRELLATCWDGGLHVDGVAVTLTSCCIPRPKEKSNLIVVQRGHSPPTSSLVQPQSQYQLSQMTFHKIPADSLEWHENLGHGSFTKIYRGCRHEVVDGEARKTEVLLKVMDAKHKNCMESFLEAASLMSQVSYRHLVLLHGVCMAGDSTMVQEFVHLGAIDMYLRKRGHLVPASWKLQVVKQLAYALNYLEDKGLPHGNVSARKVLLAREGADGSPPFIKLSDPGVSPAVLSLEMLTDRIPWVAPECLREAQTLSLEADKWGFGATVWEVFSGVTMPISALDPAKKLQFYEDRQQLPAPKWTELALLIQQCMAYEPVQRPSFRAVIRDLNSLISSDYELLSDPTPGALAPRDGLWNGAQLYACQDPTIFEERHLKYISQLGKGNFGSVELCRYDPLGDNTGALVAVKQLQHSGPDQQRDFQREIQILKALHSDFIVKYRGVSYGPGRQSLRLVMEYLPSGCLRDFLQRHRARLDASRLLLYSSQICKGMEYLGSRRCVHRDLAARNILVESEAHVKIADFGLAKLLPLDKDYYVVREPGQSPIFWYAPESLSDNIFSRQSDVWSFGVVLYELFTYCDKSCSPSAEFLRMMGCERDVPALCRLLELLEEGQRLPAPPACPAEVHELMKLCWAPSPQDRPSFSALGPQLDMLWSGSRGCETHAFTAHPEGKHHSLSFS
As to the kind of experiment: Inhibition of N-terminal GST-fused recombinant JAK3 (781 to 1124 residues) (unknown origin) expressed in insect cells using 5FAM-GEEPLYWSFPAKKK-NH2 as substrate by microfluidic capillary electrophoresis method.

Another test is filed under the species Homo sapiens. As to the kind of experiment: Selectivity ratio of IC50 for N-terminal GST-fused recombinant JAK2 (831 to 1132 residues) (unknown origin) to N-terminal GST-fused human recombinant JAK1 (866 to 1154 residues).
Test [4] addresses T2, Tyrosine-protein kinase JAK1. Description: Inhibition of JAK1 in human NCI-H1975 cells assessed as reduction in STAT3 phosphorylation after 2 hrs. Format: cell-based.
A further test addresses Aurora kinase B (Homo sapiens, UniProt Q96GD4). As to the kind of experiment: Inhibition of GST-INCENP activated N-terminal 6His-tagged human recombinant full length Aurora B (1 to 344 residues) expressed in baculovirus expression system using 5FAM-LRRASLG as substrate by microfluidic capillary electrophoresis method.
The target in test [5] is Cyclin-dependent kinase 2/cyclin E1 (Homo sapiens, UniProt P24941). Description: Inhibition of N-terminal 6His-tagged human recombinant full length CDK2 (1 to 304 residues)/Cyclin E1 (1 to 410 residues) expressed in insect cells using FL-Ahx-QSPKKG-CONH2 as substrate by microfluidic capillary electrophoresis method.
In test [6] the target is Non-receptor tyrosine-protein kinase TYK2 (Homo sapiens, UniProt P29597). Description: Inhibition of N-terminal 6His-tagged human recombinant Tyk2.
Test [7] concerns the target T2, Tyrosine-protein kinase JAK1. As to the kind of experiment: Inhibition of JAK1 in human NCI-H1975 cells assessed as reduction in STAT3 phosphorylation at 0.003 to 3 uM after 2 hrs by Western blot analysis. Format: cell-based.
Test [8] addresses T1, Tyrosine-protein kinase JAK2. As to the kind of experiment: Inhibition of JAK2 in human HEL 92.1.7 cells assessed as reduction in STAT5 phosphorylation after 2 hrs by Western blot analysis. It counts as cell-based. Background: A western blot detects proteins with antibodies after separation by electrophoresis.

T2 sequence (P23458 whole entry, the tested form may be a part): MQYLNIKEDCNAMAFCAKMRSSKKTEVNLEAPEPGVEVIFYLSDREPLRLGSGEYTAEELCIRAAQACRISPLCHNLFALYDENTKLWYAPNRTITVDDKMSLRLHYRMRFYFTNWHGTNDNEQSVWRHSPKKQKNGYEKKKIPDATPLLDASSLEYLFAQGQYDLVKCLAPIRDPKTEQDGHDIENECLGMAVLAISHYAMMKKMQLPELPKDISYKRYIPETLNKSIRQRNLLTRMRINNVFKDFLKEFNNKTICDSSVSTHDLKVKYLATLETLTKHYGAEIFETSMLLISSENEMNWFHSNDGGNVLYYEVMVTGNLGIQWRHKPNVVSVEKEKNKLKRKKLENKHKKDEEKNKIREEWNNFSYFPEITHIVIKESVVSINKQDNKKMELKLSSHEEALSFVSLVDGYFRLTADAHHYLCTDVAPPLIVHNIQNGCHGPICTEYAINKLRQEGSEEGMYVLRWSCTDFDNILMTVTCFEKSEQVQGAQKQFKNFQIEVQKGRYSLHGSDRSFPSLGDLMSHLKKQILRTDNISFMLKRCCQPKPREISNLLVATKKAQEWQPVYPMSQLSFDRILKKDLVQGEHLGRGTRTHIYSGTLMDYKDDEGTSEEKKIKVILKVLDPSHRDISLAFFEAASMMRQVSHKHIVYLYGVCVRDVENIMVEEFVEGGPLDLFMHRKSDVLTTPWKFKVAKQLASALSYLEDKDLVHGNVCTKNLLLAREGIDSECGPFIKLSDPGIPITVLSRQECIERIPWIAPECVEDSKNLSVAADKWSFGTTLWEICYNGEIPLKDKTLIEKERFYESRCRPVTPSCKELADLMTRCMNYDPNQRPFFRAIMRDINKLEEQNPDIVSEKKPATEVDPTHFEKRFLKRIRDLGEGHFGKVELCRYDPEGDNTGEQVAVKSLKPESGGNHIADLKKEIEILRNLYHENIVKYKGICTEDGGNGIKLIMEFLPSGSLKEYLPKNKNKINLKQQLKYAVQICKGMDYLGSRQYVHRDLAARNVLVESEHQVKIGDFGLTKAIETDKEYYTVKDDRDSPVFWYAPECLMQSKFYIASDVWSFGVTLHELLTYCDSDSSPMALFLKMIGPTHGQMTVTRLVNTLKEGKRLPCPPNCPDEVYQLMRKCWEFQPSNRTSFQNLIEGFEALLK
T1 sequence (O60674 whole entry, the tested form may be a part): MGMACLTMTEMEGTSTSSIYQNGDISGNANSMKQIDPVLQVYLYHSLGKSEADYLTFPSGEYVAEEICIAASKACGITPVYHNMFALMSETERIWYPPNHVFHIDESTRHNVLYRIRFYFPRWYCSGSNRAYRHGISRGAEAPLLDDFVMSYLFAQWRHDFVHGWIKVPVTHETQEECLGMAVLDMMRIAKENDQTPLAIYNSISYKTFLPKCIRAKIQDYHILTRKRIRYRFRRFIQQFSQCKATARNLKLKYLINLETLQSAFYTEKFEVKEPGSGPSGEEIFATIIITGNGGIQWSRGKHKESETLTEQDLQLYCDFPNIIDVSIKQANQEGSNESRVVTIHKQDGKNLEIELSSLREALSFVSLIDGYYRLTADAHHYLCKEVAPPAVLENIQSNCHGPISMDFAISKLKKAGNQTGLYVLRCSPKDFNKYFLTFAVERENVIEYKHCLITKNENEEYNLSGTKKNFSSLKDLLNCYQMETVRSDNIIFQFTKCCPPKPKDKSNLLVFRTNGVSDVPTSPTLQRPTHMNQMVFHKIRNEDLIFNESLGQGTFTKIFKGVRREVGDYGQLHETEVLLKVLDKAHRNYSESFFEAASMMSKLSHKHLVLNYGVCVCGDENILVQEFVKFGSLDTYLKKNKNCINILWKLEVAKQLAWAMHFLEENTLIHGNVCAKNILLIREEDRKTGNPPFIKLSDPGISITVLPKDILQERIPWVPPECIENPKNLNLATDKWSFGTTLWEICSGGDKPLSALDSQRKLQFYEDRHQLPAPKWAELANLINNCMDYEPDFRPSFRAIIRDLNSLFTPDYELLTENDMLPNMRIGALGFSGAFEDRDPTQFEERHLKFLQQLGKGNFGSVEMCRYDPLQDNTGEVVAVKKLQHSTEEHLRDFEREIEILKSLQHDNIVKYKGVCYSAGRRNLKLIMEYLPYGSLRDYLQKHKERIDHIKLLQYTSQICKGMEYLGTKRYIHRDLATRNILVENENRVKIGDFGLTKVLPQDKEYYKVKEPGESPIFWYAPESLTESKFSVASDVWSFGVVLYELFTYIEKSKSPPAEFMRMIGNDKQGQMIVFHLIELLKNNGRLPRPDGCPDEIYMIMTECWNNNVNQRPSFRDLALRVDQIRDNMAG
Aurora kinase B, sequence (Q96GD4 whole entry, the tested form may be a part): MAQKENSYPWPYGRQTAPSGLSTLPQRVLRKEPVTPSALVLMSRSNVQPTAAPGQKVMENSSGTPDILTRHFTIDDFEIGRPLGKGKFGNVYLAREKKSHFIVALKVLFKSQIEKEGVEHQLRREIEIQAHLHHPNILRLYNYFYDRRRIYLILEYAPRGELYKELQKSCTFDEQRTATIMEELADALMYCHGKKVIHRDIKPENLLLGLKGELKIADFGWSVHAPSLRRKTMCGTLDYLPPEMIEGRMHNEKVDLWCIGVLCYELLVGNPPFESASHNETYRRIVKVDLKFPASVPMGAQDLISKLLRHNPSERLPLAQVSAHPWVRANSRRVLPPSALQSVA
Non-receptor tyrosine-protein kinase TYK2, sequence (P29597 whole entry): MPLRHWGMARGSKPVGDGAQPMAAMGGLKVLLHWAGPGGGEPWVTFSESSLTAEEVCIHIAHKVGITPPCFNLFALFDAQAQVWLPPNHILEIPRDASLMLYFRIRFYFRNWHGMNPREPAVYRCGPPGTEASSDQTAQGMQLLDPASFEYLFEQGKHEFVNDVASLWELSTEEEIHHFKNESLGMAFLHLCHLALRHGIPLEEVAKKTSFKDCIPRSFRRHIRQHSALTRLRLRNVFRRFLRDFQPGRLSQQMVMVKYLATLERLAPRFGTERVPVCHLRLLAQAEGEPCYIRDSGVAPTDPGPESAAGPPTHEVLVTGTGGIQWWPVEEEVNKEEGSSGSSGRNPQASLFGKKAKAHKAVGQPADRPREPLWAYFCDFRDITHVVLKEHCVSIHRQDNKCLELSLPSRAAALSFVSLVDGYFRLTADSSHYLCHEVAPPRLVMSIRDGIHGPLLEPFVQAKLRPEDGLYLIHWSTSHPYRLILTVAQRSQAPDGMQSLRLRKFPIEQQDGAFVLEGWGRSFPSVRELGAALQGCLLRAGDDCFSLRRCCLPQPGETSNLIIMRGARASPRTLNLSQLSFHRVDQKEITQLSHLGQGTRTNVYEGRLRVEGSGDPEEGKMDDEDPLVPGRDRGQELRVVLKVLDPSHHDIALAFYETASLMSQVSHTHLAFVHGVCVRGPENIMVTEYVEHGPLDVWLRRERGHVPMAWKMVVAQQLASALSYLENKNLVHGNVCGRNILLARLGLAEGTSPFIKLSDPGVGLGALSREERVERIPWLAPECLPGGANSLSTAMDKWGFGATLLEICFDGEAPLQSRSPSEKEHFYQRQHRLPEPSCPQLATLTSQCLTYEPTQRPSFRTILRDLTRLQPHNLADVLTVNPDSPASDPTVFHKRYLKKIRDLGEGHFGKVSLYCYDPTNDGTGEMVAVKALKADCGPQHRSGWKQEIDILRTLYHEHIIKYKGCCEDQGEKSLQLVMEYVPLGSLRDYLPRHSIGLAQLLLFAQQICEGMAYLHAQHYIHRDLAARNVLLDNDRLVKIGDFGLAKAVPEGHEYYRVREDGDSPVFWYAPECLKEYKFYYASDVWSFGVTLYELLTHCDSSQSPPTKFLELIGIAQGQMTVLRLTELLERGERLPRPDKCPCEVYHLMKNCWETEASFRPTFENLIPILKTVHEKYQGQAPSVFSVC

As to `COc1ccc(-c2nc3c(NCC4CCCNC4)c(Cl)cnc3[nH]2)cc1` (stereo not given), the IC50 in test [1] amounted to 3.04 µM; in test [2], 138 nM; in test [3] it was 5.75 µM. For the same compound, in the test filed under Homo sapiens, the Ratio IC50 is 22.

As for `COc1ccccc1-c1nc2c(NCC3CCN(C)CC3)c(Cl)cnc2[nH]1`, the IC50 in [1] is over 30 µM; in [2], 12200 nM; in [3], over 30 µM. Further, the Ratio IC50 in the test listed under Homo sapiens is 2.

For the compound `COCCNc1c(Cl)cnc2[nH]c(-c3ccc(OC)cc3)nc12`, the IC50 in [1] is over 30 µM; in test [2], 2100 nM; in [3], over 30 µM. Further, in the test listed under Homo sapiens, the Ratio IC50 is over 14.

Turning to `COc1ccc(-c2nc3c(NCC4CCNCC4)c(Cl)cnc3[nH]2)cc1OC`, the IC50 stood at 2.27 µM in test [1]; 4.9 nM in test [2]; 1.2 µM in [3]; 87 nM in [4]; 16 nM at Aurora kinase B; 57 nM in test [5]. The IC50 in [6] came out at 1.28 µM. Further, the Ratio IC50 in the test listed under Homo sapiens was determined as 463.

On to `COc1ccc(-c2nc3c(N(C)CC4CCNCC4)c(Cl)cnc3[nH]2)cc1`, for which the IC50 in [1] was over 30 µM; in test [2] it was 872 nM; in test [3], over 30 µM. Besides, the Ratio IC50 in the test filed under Homo sapiens is over 34.

On to `CN1CCC(CNc2c(Cl)cnc3[nH]c(-c4ccc(S(C)(=O)=O)cc4)nc23)CC1`, for which the IC50 in test [1] worked out at 2.78 µM; in [2] it was 356 nM; in [3], 27.6 µM. The Ratio IC50 in the test filed under Homo sapiens amounted to 8.

For `COCCN1CCC(CNc2c(Cl)cnc3[nH]c(-c4ccc(OC)cc4)nc23)CC1`, the IC50 in test [1] was over 22 µM; in test [2], 801 nM; in [3], over 30 µM. Besides, the Ratio IC50 in the test listed under Homo sapiens was over 28.

In the case of `CN1CCC(CNc2c(Cl)cnc3[nH]c(-c4cccc(F)c4)nc23)CC1`, the results for the IC50 in [1], in test [2] and in [3] were 16.2 µM, 832 nM and over 30 µM, respectively. In the test filed under Homo sapiens, the Ratio IC50 was 19.

`CN1CCC(CNc2c(Cl)cnc3[nH]c(-c4cccc(S(C)(=O)=O)c4)nc23)CC1`: the IC50 in test [1] was over 30 µM; in test [2] it was 4910 nM; in test [3] it was over 30 µM. For the same compound, in the test listed under Homo sapiens, the Ratio IC50 was over 6.

For the compound `COc1ccc(-c2nc3c(OCC4CCNCC4)c(Cl)cnc3[nH]2)cc1`, the IC50 stood at 10.1 µM in [1], 177 nM in test [2] and 2.78 µM in test [3]. Besides, in the test listed under Homo sapiens, the Ratio IC50 turned out to be 57.

Turning to `COc1ccc(-c2nc3c(NCC4CCN(C)CC4)c(C(N)=O)cnc3[nH]2)cc1`, the IC50 is 10.3 µM in test [1], 977 nM in test [2] and 4.5 µM in [3]. In addition, in the test filed under Homo sapiens, the Ratio IC50 stood at 10.

Regarding `COc1ccc(-c2nc3c(NCC4CCN(C)CC4)c(Cl)cnc3[nH]2)cc1OC`, the IC50 in test [1] was 9.9 µM; in test [2] it was 73 nM; in [3], over 30 µM. In addition, the Ratio IC50 in the test listed under Homo sapiens turned out to be 137.

On to `COc1ccc(-c2nc3c(NCC4CCNCC4)c(Cl)cnc3[nH]2)c(F)c1`, for which the IC50 in test [1] turned out to be 11.8 µM; in test [2], 106 nM; in [3], 6.9 µM; in [4] it was 34 nM. Further, the Ratio IC50 in the test listed under Homo sapiens worked out at 110.

Take `COc1cccc(-c2nc3c(NCC4CCN(C)CC4)c(Cl)cnc3[nH]2)c1`: the IC50 was 16.2 µM in test [1], 274 nM in test [2] and over 30 µM in test [3]. The Ratio IC50 in the test listed under Homo sapiens turned out to be 59.

Regarding `CNc1c(Cl)cnc2[nH]c(-c3ccc(OC)cc3)nc12`, the IC50 in test [1] is over 30 µM; in [2] it was over 30000 nM; in test [3], over 30 µM.

Take `COc1ccc(F)c(-c2nc3c(NCC4CCN(C)CC4)c(Cl)cnc3[nH]2)c1`: the values for the IC50 in [1], in test [2] and in test [3] were over 30 µM, 275 nM and over 30 µM, respectively. Besides, the Ratio IC50 in the test listed under Homo sapiens was over 109.

With `COc1ccc(-c2nc3c(NCC4CCNCC4)ccnc3[nH]2)cc1`, the IC50 in [1] is over 30 µM; in test [2], over 30000 nM; in test [3] it was over 30 µM.

As to `COc1ccc(-c2nc3c(NCC4CCNC4)c(Cl)cnc3[nH]2)cc1` (stereo not given), the IC50 was 13.9 µM in test [1], 199 nM in [2] and over 22 µM in test [3]. Also, in the test filed under Homo sapiens, the Ratio IC50 came to 70.

Take `COc1ccc(-c2nc3c(NCC4CCN(C)CC4)c(Cl)cnc3[nH]2)cc1`: the IC50 in test [1] is 9.62 µM; in test [2], 317 nM; in test [3], over 30 µM. Also, the Ratio IC50 in the test filed under Homo sapiens worked out at 30.

As to `COc1ccc(-c2nc3c(NCC4CCN(C)CC4)c(Cl)cnc3[nH]2)c(C)c1`, the IC50 in test [1] was 2.7 µM; in [2], 36 nM; in test [3] it was 6.6 µM. In addition, the Ratio IC50 in the test listed under Homo sapiens was 75.

Turning to `COc1ccc(-c2nc3c(NCC4CCNCC4)c(Cl)cnc3[nH]2)cc1`, the IC50 in [1] is 1.45 µM; in test [2], 17 nM; in test [3], 1.13 µM; in test [4], 29 nM. In addition, in the test listed under Homo sapiens, the Ratio IC50 stood at 85.

Regarding `COc1ccc(-c2nc3c(NCC4CCNCC4)c(Cl)cnc3[nH]2)c(C)c1`, the IC50 came out at 2.89 µM in [1], 9 nM in test [2], 1.54 µM in test [3] and 37 nM in test [4]. Further, the Ratio IC50 in the test listed under Homo sapiens came out at 314.

Regarding `COc1cc(F)c(-c2nc3c(NCC4CCNCC4)c(Cl)cnc3[nH]2)cc1F`, the IC50 is over 17 µM in test [1], 173 nM in test [2], 7.47 µM in [3] and 71 nM in test [4]. Besides, the Ratio IC50 in the test filed under Homo sapiens is over 99.

Consider `Cc1cc(Nc2nc(N[C@@H](C)c3ncc(F)cn3)ncc2Cl)[nH]n1`, for which the inhibition entry in test [7] and in [8] was “Active” each time.

As to `COc1ccc(-c2nc3c(NC4CCN(C)CC4)c(Cl)cnc3[nH]2)cc1`, the figures for the IC50 in test [1], in test [2] and in test [3] were 14.9 µM, 561 nM and 16.9 µM, respectively. The Ratio IC50 in the test listed under Homo sapiens is 27.

In the case of `COc1ccc(-c2nc3c(NC4CCN(C(C)=O)CC4)c(Cl)cnc3[nH]2)cc1`, the results for the IC50 in [1], in test [2] and in test [3] were over 30 µM, over 30000 nM and over 30 µM, respectively.

For the compound `COc1ccc(-c2nc3c(NCC4CCN(C)CC4)c(Br)cnc3[nH]2)cc1`, the results for the IC50 in [2] and in test [3] were 177 nM and 19.2 µM, respectively.

For `COc1ccc(-c2nc3c(NCCO)c(Cl)cnc3[nH]2)cc1`, the IC50 in test [1] is over 30 µM; in test [2], 5230 nM; in [3] it was over 30 µM. Moreover, in the test listed under Homo sapiens, the Ratio IC50 worked out at 2.

For the compound `COc1ccc(-c2nc3c(NCC4CCN(C)CC4)c(C#N)cnc3[nH]2)cc1`, the IC50 is over 30 µM in [1], 4510 nM in test [2] and over 30 µM in test [3]. In the test listed under Homo sapiens, the Ratio IC50 was over 6.

On to `COc1ccc(F)c(-c2nc3c(NCC4CCNCC4)c(Cl)cnc3[nH]2)c1`, for which the IC50 was found to be 13.1 µM in [1]; 49 nM in [2]; 6.14 µM in test [3]; 76 nM in test [4]; 157 nM on Aurora kinase B; 76 nM in [5]. The IC50 in test [6] was found to be 11.4 µM. Besides, the Ratio IC50 in the test filed under Homo sapiens amounted to 267.
